Results from US12459951B2, “Compounds that interact with RAS superfamily proteins for treatment of cancers, inflammatory diseases, rasopathies, and fibrotic disease” (SHY Therapeutics, LLC, priority 2022, dated 2025).
Counter-ions that a name gives are not always drawn. Like-named read-outs stand apart in the source and are kept apart here.

How the values were obtained:
[1] = system: MiaPaca-2 (expressing KRAS G12C mutant); assay: Proliferation Assay (Cell Viability Assay); format: cell-based; settings: Homo sapiens, MIA PaCa-2
Procedure: Protocol for Proliferation Assay
This assay is referred to as the “Proliferation Assay” or “Cell Viability Assay” throughout this application.
Cell lines: Human tumor-derived cell lines were purchased from American Type Culture Collection. Human tumor-derived pancreatic cancer cell line MiaPaca-2 (expressing KRAS G12C mutant) and Panc-1 (expressing KRas G12D mutant), and Human non-small cell lung cancer (NSCLC) cell line A549 (expressing KRas G12S mutant) were grown in complete DMEM-High Glucose medium. Human colon cancer cell line SW-620 (expressing KRas G12V mutant) was grown in RPMI 1640 medium. All cell lines were supplemented with penicillin (100 U/mL), streptomycin (100 μg/mL), and 10% heat-inactivated FBS at 37° C. in a humidified incubator with 5% CO2.
(§1) Method: Cells were plated at 2000 to 5000 cells/well density in 96-wells plate and cultured overnight. Small molecules to be tested were added to the cells in the final concentration of 10 μM in the presence of 0.3% DMSO and 10% FBS and incubated for 2-4 days at 37° C. in a humidified incubator with 5% CO2. For IC50 value determination, serial dilutions of compounds were added to cells under the same conditions.
Assay: At the end of the incubation period, cell viability was determined using the CellTiter 96® Aqueous One Solution Cell Proliferation Assay according to manufacturer specifications (Promega, Madison, WI). The percentage of small molecules inhibition of cellular proliferation was calculated from raw data.
Cell lines: these Human tumor-derived cell lines were purchased from American Type Culture Collection. Human tumor-derived pancreatic cancer cell line MiaPaca-2 (expressing KRAS G12C mutant) and Panc-1 (expressing KRas G12D mutant), and Human non-small cell lung cancer (NSCLC) cell line A549 (expressing KRas G12S mutant), and Human melanoma cell line A375 (wild type Kras) were grown in complete DMEM-High Glucose medium. Human tumor-derived pancreatic cancer cell lines SU86.86 (expressing KRas G12D mutant), BxPC3 (expressing wild type K-Ras), and Human non-small cell lung cancer (NSCLC) cell lines NCI-H441 (expressing KRas G12S mutant), NCI-H1975 (expressing wild type KRas), NCI-H358 (expressing KRas G12C mutant), NCI-H1299 (expressing NRas Q61H mutant), and Human colon cancer cell line SW-620 (expressing KRas G12V mutant), Human triple negative breast cancer cell line HCC-1806 (expressing wild type KRas), and Human tumor-derived multiple myeloma cell line MM.1R (expressing wild type KRAS), were grown in RPMI 1640 medium. Human tumor-derived breast cancer cell line BT-549 (expressing wild type KRAS) was grown in RPMI 1640 medium in the presence of 11.8U insulin. Human tumor-derived pancreatic cancer cell line HPAF-II (expressing KRas G12D mutant), Human triple negative breast cancer cell line BT-20 (expressing wild type KRas), and Human colon cancer cell line LS123 (expressing KRas G12S mutant), were grown in EMEM medium. Human tumor-derived pancreatic cancer cell line CF-PAC1 (expressing KRas G12V mutant) was frown in IMDM medium, and Human colon cancer cell line HT29 (expressing wild type KRas) was grown in McCoy's 5A medium. The colon cancer cell line GP2d (expressing KRas G12D mutant) was purchased from MilliporeSigma and grown in DMEM-High Glucose medium. All cell lines were supplemented with penicillin (100 U/mL), streptomycin (100 μg/mL), and 10% heat-inactivated FBS at 37° C. in a humidified incubator with 5% CO2.
as §1, with “that were” for “to be”, “FBS,” for “FBS”

Rac-1 = target: T1, Rac-1 (Homo sapiens, UniProt P63000); assay: Ras GTP Binding Domain Inhibition Assay (Ras Superfamily Assay); settings: read-out: Rac-1: % inh.
T1 construct: made in house
Description: (§2) Biological Example 3: Ras GTP Binding Domain Inhibition Assay
(§3) The assays described in Example 3 are collectively referred to as the “Ras Superfamily Assay” throughout this application.
(§4) A Ras Superfamily Activity Assay (as disclosed in International Application No. PCT/US2018/038613, filed Jun. 20, 2018, which is incorporated by reference in its entirety) was used as a specific assay to evaluate compounds against the following for the following Ras Superfamily proteins: KRas wild type, KRas Q61H mutant, KRas G12C mutant, KRas G12D mutant, Rac-1, and Rho-A.
(§5) • 25 mM Tris-HCl, pH 7.4 • 27 mM KCl • 137 mM NaCl • 1 mM MgCl2 • 1 mM DTT Buffer-II: • 50 mM Tris-HCl, pH 7.0 • 1 mM MgCl2 • 1 mM DTT
(§6) The small GTPases proteins: KRas wild type. KRas Q61H mutant, KRas G12C mutant, KRas G12D mutants, Rac-1, and Rho-A were expressed as His-tagged proteins. In addition, the Guanosine nucleotide Exchange Factor (GEF) Sos protein (residues 556-1049) was expressed as a His-tagged protein. In cells, the guanine nucleotide exchange factor Sos protein promotes activation of Ras proteins by stimulating an exchange of GDP for GTP. The inclusion of Sos to the Ras GTP binding domain inhibition assay may be considered as an alternative representation of physiological cellular conditions for evaluating the inhibitory activity of some of the tested small molecules.
(§7) For the assay, all purified small GTPases proteins were diluted in Buffer-I or Buffer-II to a final concentration of 10-30 μg/mL. 200 μL of each diluted protein was added to a nickel-coated 96-well plate and incubated overnight at 4° C. Then the protein solution was discarded and 200 μL of Buffer-I or Buffer-II was added to each well in the presence of 1% DMSO. Compounds to be tested were added to the protein-coated wells at final concentration of 20 μM, and incubated for 3 hours at room temperature with and without 10-30 μg/mL of Sos added to the final hour of the incubation. When performing IC50 measurements a serial dilution of all tested concentrations was added. Then Cy3-GTP or Cy5-GTP was added to each well to a final concentration of 100 nM. The labeled GTP was incubated for 45 minutes at room temperature. Following GTP incubation, wells were washed 3× in Buffer-I or Buffer-II and 200 μL of Buffer-I or Buffer-II was added to each well. Following washes, the amount of bound labeled-GTP was measured using a SpectraMax M3 (Molecular Devices).

KRas wild type = assay: as above; settings: 20 μM compound; for KRas wild type + SOS: % inh.: with SOS; for KRas wild type: % inh.: without SOS
Description: as §2, §3, §4, §5, §6, §7

KRas G12D mutant = assay: as above; settings: 20 μM compound; for KRas G12D mutant + SOS: % inh.: with SOS; for KRas G12D mutant: % inh.: without SOS
Description: as §2, §3, §4, §5, §6, §7

[2] = Proliferation assay, MiaPaca-2, read-out: MiaPaca-2 IC50 (nM) Pancreatic
[3] = read-out: Proliferation in MiaPaca-2: IC50

SMILES	IC50 [1, 2] [nM]	IC50 [1, 3] [nM]	inhibition at 20 µM (Rac-1) [%]	KRas wild type + SOS: % inh. (KRas wild type)	KRas wild type: % inh. (KRas wild type)	KRas G12D mutant + SOS: % inh. (KRas G12D mutant)	KRas G12D mutant: % inh. (KRas G12D mutant)
Cc1c(-c2ccn(C)n2)cn2nc(-c3nccn3C)nc(Nc3cc4n(n3)CCC4)c12 [Compound 100, N-(5,6-Dihydro-4H-pyrrolo[1,2-b]pyrazol-2-yl)-5-methyl-2-(1-methyl-1H-imidazol-2-yl)-6-(1-methyl-1H-pyrazol-3-yl)pyrrolo[2,1-f][1,2,4]triazin-4-amine]	1 to 10	< 150	76 to 100	D (D = 76-100% inhibition)	D (D = 76-100% inhibition)	D (D = 76-100% inhibition)	D (D = 76-100% inhibition)
Cc1c(-c2ccn(C)n2)cn2nc(-c3nccn3C)nc(Nc3cc(OCCO)ncn3)c12 [Compound 101, 2-((6-((5-Methyl-2-(1-methyl-1H-imidazol-2-yl)-6-(1-methyl-1H-pyrazol-3-yl)pyrrolo[2,1-f][1,2,4]triazin-4-yl)amino)pyrimidin-4-yl)oxy) ethan-1-ol]		150 to 500	76 to 100	B (B = 26-49% inhibition)	D (D = 76-100% inhibition)	C (C = 50-75% inhibition)	D (D = 76-100% inhibition)
COc1ccnc(Nc2nc(-c3nccn3C)nn3cc(-c4ccn(C)n4)c(C)c23)c1 [Compound 102, N-(4-Methoxypyridin-2-yl)-5-methyl-2-(1-methyl-1H-imidazol-2-yl)-6-(1-methyl-1H-pyrazol-3-yl)pyrrolo[2,1-f][1,2,4]triazin-4-amine]	1 to 10	< 150	76 to 100	D (D = 76-100% inhibition)	D (D = 76-100% inhibition)	D (D = 76-100% inhibition)	D (D = 76-100% inhibition)
CO[C@H]1C[C@H](Nc2nc(-c3nccn3C)nn3cc(-c4ccn(C)n4)c(C)c23)C1 [Compound 103, N-((1r,3r)-3-Methoxycyclobutyl)-5-methyl-2-(1-methyl-1H-imidazol-2-yl)-6-(1-methyl-1H-pyrazol-3-yl)pyrrolo[2,1-f][1,2,4]triazin-4-amine hydrochloride salt]		> 1000	1 to 25	A (A = 1-25% inhibition)	B (B = 26-49% inhibition)	B (B = 26-49% inhibition)	B (B = 26-49% inhibition)
Cc1c(-c2ccn(C)n2)cn2nc(-c3nccn3C)nc(Nc3cc(C4CC4)[nH]n3)c12 [Compound 104, N-(5-Cyclopropyl-1H-pyrazol-3-yl)-5-methyl-2-(1-methyl-1H-imidazol-2-yl)-6-(1-methyl-1H-pyrazol-3-yl)pyrrolo[2,1-f][1,2,4]triazin-4-amine]	1 to 10	< 150	76 to 100	D (D = 76-100% inhibition)	D (D = 76-100% inhibition)	D (D = 76-100% inhibition)	D (D = 76-100% inhibition)

Other lines, results leading:

IC50 [1, 2] [nM]	IC50 [1, 3] [nM]	inhibition at 20 µM (Rac-1) [%]	KRas wild type + SOS: % inh. (KRas wild type)	KRas wild type: % inh. (KRas wild type)	KRas G12D mutant + SOS: % inh. (KRas G12D mutant)	KRas G12D mutant: % inh. (KRas G12D mutant)	SMILES
	510 to 1000	76 to 100	D (D = 76-100% inhibition)	C (C = 50-75% inhibition)	D (D = 76-100% inhibition)	D (D = 76-100% inhibition)	Cc1c(-c2ccn(C)n2)cn2nc(-c3nccn3C)nc(Nc3nccc(OCCN(C)C)n3)c12 [Compound 105, N-(4-(2-(Dimethylamino)ethoxy)pyrimidin-2-yl)-5-methyl-2-(1-methyl-1H-imidazol-2-yl)-6-(1-methyl-1H-pyrazol-3-yl)pyrrolo[2,1-f][1,2,4]triazin-4-amine]
	< 150	26 to 49	0 (0 = 0% inhibition)	A (A = 1-25% inhibition)	A (A = 1-25% inhibition)	B (B = 26-49% inhibition)	Cc1c(-c2ccn(C)n2)cn2nc(-c3nccn3C)nc(Nc3nccn3C)c12 [Compound 106, 5-Methyl-N,2-bis(1-methyl-1H-imidazol-2-yl)-6-(1-methyl-1H-pyrazol-3-yl)pyrrolo[2,1-f][1,2,4]triazin-4-amine]
	< 150	76 to 100	D (D = 76-100% inhibition)	C (C = 50-75% inhibition)	C (C = 50-75% inhibition)	C (C = 50-75% inhibition)	COc1cncnc1Nc1nc(-c2nccn2C)nn2cc(-c3ccn(C)n3)c(C)c12 [Compound 107, N-(5-Methoxypyrimidin-4-yl)-5-methyl-2-(1-methyl-1H-imidazol-2-yl)-6-(1-methyl-1H-pyrazol-3-yl)pyrrolo[2,1-f][1,2,4]triazin-4-amine]
	510 to 1000	76 to 100	C (C = 50-75% inhibition)	D (D = 76-100% inhibition)	C (C = 50-75% inhibition)	D (D = 76-100% inhibition)	CCc1nc(Nc2nc(-c3nccn3C)nn3cc(-c4ccn(C)n4)c(C)c23)nn1C [Compound 108, N-(5-Ethyl-1-methyl-1H-1,2,4-triazol-3-yl)-5-methyl-2-(1-methyl-1H-imidazol-2-yl)-6-(1-methyl-1H-pyrazol-3-yl)pyrrolo[2,1-f][1,2,4]triazin-4-amine]
